The results in this text go back to US7858635B2 (priority 2005, dated 2010).

One assay concerns the target T1, M1 muscarinic receptor (Homo sapiens, UniProt P11229).
T1 construct: expressed in transfected cells; host or cells: CHO cells (M1-CHO, under zeocin and G418 selection)
T1 sequence (P11229 1-460): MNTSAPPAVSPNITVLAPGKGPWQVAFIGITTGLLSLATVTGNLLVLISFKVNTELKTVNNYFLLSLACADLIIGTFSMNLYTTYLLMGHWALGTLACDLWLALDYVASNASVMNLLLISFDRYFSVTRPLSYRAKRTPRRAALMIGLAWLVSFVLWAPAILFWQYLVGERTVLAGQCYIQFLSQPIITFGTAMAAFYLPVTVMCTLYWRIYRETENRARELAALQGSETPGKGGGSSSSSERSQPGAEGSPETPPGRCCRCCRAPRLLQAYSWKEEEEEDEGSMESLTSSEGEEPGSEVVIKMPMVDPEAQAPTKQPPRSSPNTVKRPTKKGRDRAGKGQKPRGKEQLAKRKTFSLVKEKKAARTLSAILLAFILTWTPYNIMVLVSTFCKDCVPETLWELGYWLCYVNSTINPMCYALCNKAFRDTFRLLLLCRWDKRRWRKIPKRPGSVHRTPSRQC
As to the kind of experiment: Functional mobilization of intracellular calcium (FLIPR, Fluo-3), M1-CHO cells. The format is cell-based. The following applies: compound nos. 1-454; for Emax: 100% efficacy is the maximum response obtained with the Carbachol control, read-out: M1 Efficacy. How it is done:
(§1) CHO cells expressing muscarinic receptors (M1 to M5) are grown as monolayers in tissue culture flasks at 37° C. in a humidified atmosphere containing 5% CO2 and passaged every 3-5 days. The growth media is Dulbecco's modified eagles medium (DMEM, Gibco Cat#12430-054), containing 25 mM Hepes and supplemented with Fetal Bovine Serum (Hyclone, cat# SH30071.03), 0.1 mM of MEM non-essential amino acids (GIBCO, Cat# 11140-050), 1 mM MEM Sodium Pyruvate (GIBCO Cat# 11360-070) and 100 units/ml of Penicillin G and 100 μg/ml of Streptomycin (GIBCO Cat# 15140-122). The recombinant muscarinic receptor cell lines are grown under antibiotic pressure with media containing 25 μm/ml zeocin and 500 μg/ml G418 (M1-CHO), 4 μg/ml puromycin, 50 μg/ml zeocin and 2.5 μm/ml blasticidin (M2 and M4-CHO) or 50 μg/ml zeocin and 4 μg/ml puromycin (M3 and M5-CHO).
(§2) Cells are harvested at 80-90% confluence using Versene (GIBCO Cat# 15040-066), collected by centrifugation and seeded 18-24 hrs prior to running the calcium assay at a density of 5,000-10,000 cells/well in […], clear-bottomed 384-well plates (BD Biocoat, poly-D-lysine, Cat#356663). The day of the experiment, the cells are washed with a plate washer (Bioteck Instruments, ELX 405) using bath1 buffer (140-mM NaCl, 4.5-mM KCL, 2-mM CaCl2, 1-mM MgCl2, 10-mM Hepes-Na, 10-mM Glucose, pH 7.4, with NaOH) containing 1 mM Probenecid. Next, the calcium dye Fluo-3 (25 μl/well of Fluo-3 μM at 4 μM, Molecular Probes F-1241, in Bath 1 buffer containing 1 mM Probenecid) is added to the 25 μl of Bath 1 remaining in each well after the plate wash and the dye is loaded at 37° C. in the tissue culture incubator for 60-90 min. The fluorescent dye is removed using the plate washer with Bath 1 containing 1 mM Probenecid, leaving 25 μl/well of this solution after the wash. Alternatively, cells can be loaded with the calcium indicator from Molecular Devices (Calcium 3 Assay Reagents, Cat # R7181) adding 5 μl of a 5× solution dye in Bath 1 containing 1 mM Probenecid (10 ml per dye flask cat# R7182 to generate a solution 20×) to 20 μl of the same buffer. After loading for 60 min, the experiment can be run without having to remove the dye.
(§3) Compounds are prepared at a 2× fold concentration in a 96-well plate (round bottom, Costar Corning cat# 3656), by reconstituting the pre-spotted compounds in bath 1 containing 1 mM probenecid. The final concentration DMSO is 0.5%, and the amount of DMSO is normalized across the assay plate. To determine an agonist action of the compounds on muscarinic receptors, the reconstituted compounds are added (25 μl compound/well) to the cell assay plate (containing 25 μl/well) using the multi-channel robotic system of the FLIPR 3 Instrument (Molecular Devices, Sunnyvale, Calif.). To determine a functional inhibitory action of the compounds on muscarinic receptors, the reconstituted compounds are added (25 μl compound/well) to the assay plate and pre-incubated for 15 min prior to adding 25 μl of Carbachol at 3× the EC80 for each muscarinic subtype. Alternatively, the compounds can be co-applied simultaneously with the agonist. In both assay modes, the fluorescence is recorded for 60 sec (excitation wavelength is […] and emission wavelength 540 nm) using the FLIPR 3 instrument.
(§4) The potency, efficacy and selectivity of the muscarinic compounds were evaluated by screening the compound activity across the whole family (M1 to M5 cells). Compounds were also screened for activity on other proteins such as other GPCRs and ion channels to determine selectivity on M4 receptors.
Background: A change in cytosolic calcium serves as a functional read-out for many receptors and channels.

In another assay the target is T2, M4 muscarinic receptor (Homo sapiens, UniProt P08173).
T2 construct: expressed in transfected cells; host or cells: CHO cells (M4-CHO, under puromycin, zeocin and blasticidin selection)
T2 sequence (P08173 1-479): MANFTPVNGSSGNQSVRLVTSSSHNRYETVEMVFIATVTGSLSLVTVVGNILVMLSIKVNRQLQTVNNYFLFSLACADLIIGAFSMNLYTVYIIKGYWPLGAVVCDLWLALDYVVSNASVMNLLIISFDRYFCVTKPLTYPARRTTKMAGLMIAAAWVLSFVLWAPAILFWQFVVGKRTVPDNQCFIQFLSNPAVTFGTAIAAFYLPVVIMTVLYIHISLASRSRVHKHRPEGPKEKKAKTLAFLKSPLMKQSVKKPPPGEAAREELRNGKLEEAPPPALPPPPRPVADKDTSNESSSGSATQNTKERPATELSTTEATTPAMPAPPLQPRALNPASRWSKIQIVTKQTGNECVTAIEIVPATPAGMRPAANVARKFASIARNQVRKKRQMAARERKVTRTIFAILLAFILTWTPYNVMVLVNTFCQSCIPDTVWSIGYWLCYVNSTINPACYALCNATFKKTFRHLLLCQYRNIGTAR
As to the kind of experiment: Functional mobilization of intracellular calcium (FLIPR, Fluo-3), M4-CHO cells. Format: cell-based. The conditions noted are these: compound nos. 1-454; for Emax: 100% efficacy is the maximum response obtained with the Carbachol control, read-out: M4 Efficacy. The protocol: as §1, §2, §3, §4

Where [1] appears, read: M1-CHO cells, calcium mobilization.
Where [2] appears, read: M4-CHO cells, calcium mobilization.

Take `Clc1ccc2c(c1)C1(CCN(C3CCCCC3)CC1)CN2` [compound 155]: the figures for the Emax on M1 muscarinic receptor and on M4 muscarinic receptor were above 85% and above 70%, respectively. The “M1 Activity” value on M1 muscarinic receptor (setting [1]) was “+++ (activity was measured to be less than or equal to 0.7 μM)”. Besides, on M4 muscarinic receptor (setting [2]), the “M4 Activity” value is recorded as “+ (activity was measured to be greater than or equal to 4.0 μM)”.

With `CN(C)C(=O)N1CC2(CCN(C3CCN(c4ccccn4)CC3)CC2)c2cc(F)ccc21` [compound 452], on M1 muscarinic receptor, the “M1 Activity” value was “++ (activity was measured to be between 0.7 μM and 3.0 μM)”; the Emax lay in the range of 65 to 85%. Further, at M4 muscarinic receptor, the “M4 Activity” value was “+++ (activity was measured to be less than or equal to 0.1 μM)” and the Emax was 55 to 70%.

As to `CC(=O)N(C)[C@H]1CC2(CCN(C[C@H]3C[C@H]4CC[C@H]3C4)CC2)c2ccccc21` [compound 339], the Emax on M1 muscarinic receptor is below 65%; at M4 muscarinic receptor it was below 55%. For the same compound, the “M1 Activity” value at M1 muscarinic receptor (setting [1]) is given as “+ (activity was measured to be greater than or equal to 3.0 μM)”. Besides, at M4 muscarinic receptor (setting [2]), the “M4 Activity” value is on record as “+ (activity was measured to be greater than or equal to 4.0 μM)”.

On to `CC(C)OC(=O)N1C2CCC1CC(N1CCC3(CC1)C(=O)Nc1ccccc13)C2` (stereo not shown) [compound 139], for which the Emax at M1 muscarinic receptor was above 85%; at M4 muscarinic receptor it was above 70%. In addition, the “M1 Activity” value on M1 muscarinic receptor (setting [1]) is recorded as “+++ (activity was measured to be less than or equal to 0.7 μM)”. In addition, the “M4 Activity” value on M4 muscarinic receptor (setting [2]) is “+++ (activity was measured to be less than or equal to 0.1 μM)”.

For `CCOC(=O)N1C2CCC1CC(N1CCC3(CC1)CN(C(=O)Nc1ccc(F)cc1)c1ccc(F)cc13)C2` (stereo not shown) [compound 197], the values for the Emax on M1 muscarinic receptor and on M4 muscarinic receptor were below 65% and below 55%, respectively. Also, the “M1 Activity” value on M1 muscarinic receptor (setting [1]) was “++ (activity was measured to be between 0.7 μM and 3.0 μM)”. The “M4 Activity” value at M4 muscarinic receptor (setting [2]) is given as “+ (activity was measured to be greater than or equal to 4.0 μM)”.

As to `CC(=O)N[C@H]1CC2(CCN(CC3CCN(C(=O)OC(C)C)CC3)CC2)c2ccccc21` [compound 399], on M1 muscarinic receptor, the “M1 Activity” value is “++ (activity was measured to be between 0.7 μM and 3.0 μM)”; the Emax is 65 to 85%. At M4 muscarinic receptor, the “M4 Activity” value was “++ (activity was measured to be between 0.1 μM and 4.0 μM)”; the Emax was below 55%.

Turning to `CC(=O)N1CC2(CCN(CC3CCCC3)CC2)c2cc(F)ccc21` [compound 187], the Emax at M1 muscarinic receptor lay in the range of 65 to 85%; on M4 muscarinic receptor, 55 to 70%. Besides, the “M1 Activity” value at M1 muscarinic receptor (setting [1]) is “++ (activity was measured to be between 0.7 μM and 3.0 μM)”. Further, the “M4 Activity” value on M4 muscarinic receptor (setting [2]) was “+ (activity was measured to be greater than or equal to 4.0 μM)”.

Consider `CCOC(=O)N1C2CCC1CC(N1CCC3(CC1)c1ccccc1C(=O)C3(C)C)C2` (stereo not shown) [compound 278], for which the Emax on M1 muscarinic receptor lay in the range of 65 to 85%; on M4 muscarinic receptor, 55 to 70%. The “M1 Activity” value on M1 muscarinic receptor (setting [1]) is “++ (activity was measured to be between 0.7 μM and 3.0 μM)”. Moreover, the “M4 Activity” value at M4 muscarinic receptor (setting [2]) was “++ (activity was measured to be between 0.1 μM and 4.0 μM)”.

As for `c1ccc2c(c1)NCC21CCN(C2CC3CCC2C3)CC1` (stereo not shown) [compound 272], the Emax on M1 muscarinic receptor is 65 to 85%; on M4 muscarinic receptor, above 70%. For the same compound, on M1 muscarinic receptor (setting [1]), the “M1 Activity” value is recorded as “+++ (activity was measured to be less than or equal to 0.7 μM)”. Moreover, the “M4 Activity” value on M4 muscarinic receptor (setting [2]) is on record as “+++ (activity was measured to be less than or equal to 0.1 μM)”.

Take `CC(=O)N1CC2(CCN(CC3CC4CCC3C4)CC2)c2cc(C)ccc21` (stereo not shown) [compound 118]: the Emax on M1 muscarinic receptor was 65 to 85%; on M4 muscarinic receptor it was below 55%. Besides, the “M1 Activity” value on M1 muscarinic receptor (setting [1]) is “+++ (activity was measured to be less than or equal to 0.7 μM)”. Moreover, on M4 muscarinic receptor (setting [2]), the “M4 Activity” value is reported as “+ (activity was measured to be greater than or equal to 4.0 μM)”.

`CCOC(=O)N1CCC(N2CCC3(CC2)CN(CC(C)=O)c2ccc(F)cc23)CC1` [compound 249]: the Emax at M1 muscarinic receptor lay within 65 to 85%; on M4 muscarinic receptor it was 55 to 70%. On M1 muscarinic receptor (setting [1]), the “M1 Activity” value was “+ (activity was measured to be greater than or equal to 3.0 μM)”. At M4 muscarinic receptor (setting [2]), the “M4 Activity” value is reported as “+ (activity was measured to be greater than or equal to 4.0 μM)”.

`O=C(O[C@@H]1CCOC1)N1C2CCC1CC(N1CCC3(CC1)COc1ccc(F)cc13)C2` (stereo partly shown) [compound 338]: the Emax is below 65% on M1 muscarinic receptor and below 55% at M4 muscarinic receptor. Besides, at M1 muscarinic receptor (setting [1]), the “M1 Activity” value is listed as “+ (activity was measured to be greater than or equal to 3.0 μM)”. Also, at M4 muscarinic receptor (setting [2]), the “M4 Activity” value is listed as “+ (activity was measured to be greater than or equal to 4.0 μM)”.

On to `CC(=O)N1CC2(CCN(C3CCC4(CC3)CC(C)=NO4)CC2)c2cc(F)ccc21` (stereo not shown) [compound 433], for which, on M1 muscarinic receptor, the “M1 Activity” value was “++ (activity was measured to be between 0.7 μM and 3.0 μM)”; the Emax lay within 65 to 85%. At M4 muscarinic receptor, the “M4 Activity” value is “++ (activity was measured to be between 0.1 μM and 4.0 μM)”; the Emax was below 55%.

`CS(=O)(=O)N[C@@H]1CC2(CCN(C[C@H]3C[C@H]4CC[C@H]3C4)CC2)c2ccccc21` [compound 227]: the Emax on M1 muscarinic receptor was above 85%; at M4 muscarinic receptor, above 70%. Also, the “M1 Activity” value at M1 muscarinic receptor (setting [1]) was “+++ (activity was measured to be less than or equal to 0.7 μM)”. For the same compound, the “M4 Activity” value at M4 muscarinic receptor (setting [2]) was “+++ (activity was measured to be less than or equal to 0.1 μM)”.

For the compound `CCOC(=O)N1CCC(N2CCC3(CC2)CN(C(=O)c2ccccn2)c2ccc(F)cc23)CC1` [compound 331], the results for the Emax at M1 muscarinic receptor and at M4 muscarinic receptor were below 65% and below 55%, respectively. Besides, the “M1 Activity” value on M1 muscarinic receptor (setting [1]) is “++ (activity was measured to be between 0.7 μM and 3.0 μM)”. The “M4 Activity” value on M4 muscarinic receptor (setting [2]) is reported as “+ (activity was measured to be greater than or equal to 4.0 μM)”.

As for `CCOC(=O)N1C2CCC1CC(N1CCC3(CC1)C[C@H](NC(C)=O)c1ccccc13)C2` (stereo partly shown) [compound 359], the Emax on M1 muscarinic receptor was below 65%; on M4 muscarinic receptor it was below 55%. For the same compound, on M1 muscarinic receptor (setting [1]), the “M1 Activity” value is “++ (activity was measured to be between 0.7 μM and 3.0 μM)”. Besides, the “M4 Activity” value at M4 muscarinic receptor (setting [2]) is “++ (activity was measured to be between 0.1 μM and 4.0 μM)”.
